In experiment [1] the target is T1, FabX (Helicobacter pylori, UniProt O25465).
T1 construct: gene HP_0773; recombinant from pQE2 vector in E. coli BL21(DE3) Rosetta, Ni-NTA, HiTrap-SP, Superdex75; FMN and [4Fe-4S] cofactors
T1 sequence (O25465 1-363): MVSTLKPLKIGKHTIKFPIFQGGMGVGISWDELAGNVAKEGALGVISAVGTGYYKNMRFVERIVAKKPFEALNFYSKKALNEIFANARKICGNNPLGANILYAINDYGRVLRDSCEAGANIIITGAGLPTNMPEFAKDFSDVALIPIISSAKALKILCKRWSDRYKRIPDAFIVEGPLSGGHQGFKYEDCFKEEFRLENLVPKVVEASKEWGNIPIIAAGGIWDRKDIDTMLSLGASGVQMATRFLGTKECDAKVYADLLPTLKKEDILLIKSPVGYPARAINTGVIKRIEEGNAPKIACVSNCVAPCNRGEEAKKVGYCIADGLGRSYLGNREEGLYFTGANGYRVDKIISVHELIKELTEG
The experiment in a line: biochemical. Also noted: FabX-FabI enzyme-coupled assay, NADH consumption read-out of FabX inhibition. Conditions: for inhibition at 10 µM: read-out: Inhibition (%) 10 μM; for inhibition at 1 µM: read-out: Inhibition (%) 1 μM. The source says:
To discover small molecule inhibitors targeting FabX, we performed protein thermal shift assay (PTSA) based high‐throughput screening against an in‐house chemical library of 11000 small molecule compounds, and established a multienzymatic cascade reaction system by incorporating the enoyl acyl carrier protein reductase FabI from H. pylori into the hit validation system, where FabI catalyzes the reduction of FabX catalytic product enoyl‐ACP in the fourth step of the elongation cycle, accompanying the elimination of NADH (Figure 2A,B). […] Subsequently, the inhibitory activities of these derivatives at 10 × 10^−6 and 1 × 10^−6 M were evaluated, and the structure–activity relationship (SAR) was analyzed (Figure S2, Supporting Information). In the first round of SAR, we briefly examined the influence of the substituents’ positions (C3 and C4), the electronic effects, and the polarity in the A moiety. We synthesized compounds 1a‐1l and evaluated their enzymatic activities (Table S1, Supporting Information). […] In particular, 3‐CN (1e) and 3‐COOH (1i) enhanced the inhibitory activity. We speculate that these two groups may act as hydrogen bond acceptors, forming hydrogen bonds with FabX and enhancing the interaction. We then retained the 3‐CN group in the A moiety and optimized the B moiety to investigate the 2,4‐disubstitution by synthesizing 8a‐8c (Figure 3). […] [picture] Figure S1. Schematic diagram of Type-II fatty acid biosynthesis pathway (FAS-II) in Helicobacter pylori. FabX (red sphere) catalyzes the dehydrogenation and isomerization of the saturated acyl group on ACP (the fifth step in the elongation cycle) for cis-double bond introduction and UFA synthesis. The black and blue curves indicate the SFA and UFA synthesis processes, respectively, while the blue dashes indicate the absence of the conventional fabA gene in the genome of H. pylori. [picture] Figure S2. Bioactivity evaluation of FBX-1 derivatives at 10 μM and 1 μM in the FabX-FabI enzyme-coupled assay. [picture] Figure S3. Overexpression of FabX in strain BHKS211. BHKS210 (NSH57/Vec) and BHKS211 (NSH57/fabX) were cultured in BHI broth supplemented with 10% FCS to an OD600 of 0.3 and then harvested. RNA isolation, reverse transcription, and real-time PCR were performed as described in the EXPERIMENTAL METHODS section. The relative levels of fabX expression in BHKS211 compared to the control strain BHKS210 are represented. The data are the averages ± standard deviations from three independent experiments.

For experiment [2], the target named is T1, FabX. The experiment in a line: FabX-FabI coupled assay, NADH absorbance […] nm. The class given is biochemical.

Regarding `O=S(=O)(Nc1cccc(I)c1)c1cccnc1Nc1ccc(Cl)cc1` [1c, 2-((4-chlorophenyl)amino)-N-(3-iodophenyl)pyridine-3-sulfonamide], the inhibition – broadly, the share of the control response that was lost under treatment – at 10 µM in experiment [1] amounted to 23%.

As to `N#Cc1ccc(NS(=O)(=O)c2cccnc2Nc2ccc(Cl)cc2)cc1` [1d, 2-((4-chlorophenyl)amino)-N-(4-cyanophenyl)pyridine-3-sulfonamide], the inhibition at 10 µM in experiment [1] came out at 12%.

As to `N#Cc1cccc(NS(=O)(=O)c2cccnc2Nc2ccc(Cl)cc2)c1` [1e], in experiment [1], the inhibition at 1 µM turned out to be 31% and the inhibition at 10 µM is 88%.

For `COc1ccc(NS(=O)(=O)c2cccnc2Nc2ccc(Cl)cc2)cc1` [1f], the inhibition at 10 µM in experiment [1] came out at 23%.

With `COc1cccc(NS(=O)(=O)c2cccnc2Nc2ccc(Cl)cc2)c1` [1g], the inhibition at 10 µM in experiment [1] was 21%.

Consider `CCOC(=O)c1cccc(NS(=O)(=O)c2cccnc2Nc2ccc(Cl)cc2)c1` [1h], for which the inhibition at 10 µM in experiment [1] worked out at 35%.

Regarding `O=C(O)c1cccc(NS(=O)(=O)c2cccnc2Nc2ccc(Cl)cc2)c1` [1i], in experiment [1], the inhibition at 1 µM is 19% and the inhibition at 10 µM was determined as 65%.

Take `C#Cc1cccc(NS(=O)(=O)c2cccnc2Nc2ccc(Cl)cc2)c1` [1j]: the inhibition at 10 µM in experiment [1] came out at 63%.

Turning to `O=S(=O)(Nc1ccc(F)nc1)c1cccnc1Nc1ccc(Cl)cc1` [1k], the inhibition at 10 µM in experiment [1] is 12%.

For the compound `O=S(=O)(NCc1ccccc1)c1cccnc1Nc1ccc(Cl)cc1` [1l], in experiment [1], the inhibition at 1 µM worked out at 12% and the inhibition at 10 µM was determined as 25%.

Turning to `N#Cc1cccc(NS(=O)(=O)c2cccnc2Nc2ccc(Cl)cc2Cl)c1` [8c], the midpoint of inhibition in experiment [2], the IC50, lay at 0.625 ± 0.082 µM. In experiment [1], the inhibition at 1 µM was found to be 77% and the inhibition at 10 µM was 100%.

With `O=c1[nH]c(-c2cccc(NS(=O)(=O)c3cccnc3Nc3ccc(Cl)cc3Cl)c2)no1` [8k], inhibition in experiment [2] was half-maximal at 0.665 ± 0.085 µM (IC50).

As for `O=S(=O)(Nc1cccc(-c2nnn[nH]2)c1)c1cccnc1Nc1ccc(Cl)cc1Cl` [8l], in experiment [2], the IC50 (in general, the concentration that inhibits the measured activity by half) was 0.904 ± 0.177 µM.

In experiment [2], `O=C1COc2ccc(NS(=O)(=O)c3cccnc3Nc3ccc(Cl)cc3Cl)cc2N1` [8m] registered an IC50 of 0.249 ± 0.038 µM.

`O=S(=O)(Nc1cccc(O)c1)c1cccnc1Nc1ccc(Cl)cc1Cl` [8n] showed a concentration for half-maximal inhibition (IC50) in experiment [2] of 0.945 ± 0.111 µM.

In the case of `N#Cc1cccc(NS(=O)(=O)c2ccncc2Nc2ccc(Cl)cc2Cl)c1` [11a, N-(3-cyanophenyl)-3-((2,4-dichlorophenyl)amino)pyridine-4-sulfonamide], in experiment [1], the IC50 was determined as 0.48 ± 0.061 µM, the inhibition at 1 µM came out at 100% and the inhibition at 10 µM amounted to 100%.

As for `N#Cc1cccc(NS(=O)(=O)c2ncccc2Nc2ccc(Cl)cc2Cl)c1` [11c, N-(3-cyanophenyl)-3-((2,4-dichlorophenyl)amino)pyridine-2-sulfonamide], in experiment [1], the inhibition at 1 µM came to 17% and the inhibition at 10 µM turned out to be 60%.

For `N#Cc1cccc(NS(=O)(=O)c2ccccc2Nc2ccc(Cl)cc2Cl)c1` [11d, N-(3-cyanophenyl)-2-((2,4-dichlorophenyl)amino)benzenesulfonamide], in experiment [1], the IC50 came to 2.38 ± 0.225 µM, the inhibition at 1 µM was determined as 60% and the inhibition at 10 µM stood at 94%.

For `O=S(=O)(Nc1ccc(F)cc1)c1cccnc1Nc1ccc(Cl)cc1` [FBX-1], inhibition in experiment [2] was half-maximal at 9.7 ± 1 µM (IC50).

Source of the values: article PMC12079444, “Antagonist Targeting the Species‐Specific Fatty Acid Dehydrogenase/Isomerase FabX for Anti‐H. pylori Infection” (Advanced Science, 2025).
